Assay results from patent US6451325B1, “Adjuvant formulation comprising a submicron oil droplet emulsion” (Chiron Corporation, priority 1989, dated 2002).

Test system: influenza HA (Parke-Davis FLUOGEN)
Parameters: species or system Goats
Conditions: in vivo

SMILES: CCCCCCCCCCCCCCCC(=O)OC[C@H](COP(=O)(O)OCCNC(=O)[C@H](C)NC(=O)CC[C@@H](NC(=O)[C@H](C)NC(=O)[C@@H](C)O[C@H]1[C@H](O)[C@@H](CO)OC(O)[C@@H]1NC(C)=O)C(N)=O)OC(=O)CCCCCCCCCCCCCCC (stereo partly drawn) [MTP-PE in PBS, N-acetylmuramyl-L-alanyl-D-isoglutaminyl-L-alanine-2-[1,2-dipalmitoyl-sn-glycero-3-(hydroxyphosphoryloxy)]ethylamide]
- stimulation of antibody titer after one immunization: no stimulation of antibody titer
